This is an account of results in patent publication US8754073B2, “Substituted piperazino-dihydrothienopyrimidines” (Boehringer Ingelheim International GmbH, priority 2007, dated 2014).

The inhibition is the relative decrease from the control value, in per cent. Low values mean little suppression, high ones strong suppression.

The target of the test is PDE4B (Homo sapiens, UniProt Q07343). Nature of the test: Scintillation Proximity Assay (SPA) of PDE4B enzyme activity ([H3]-cAMP cleavage). It counts as biochemical. As to conditions: test substance 1 μM; one-hour incubation with [H3]-cAMP at 30° C. Summed up: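 SPA read-out: [H3]-cAMP incubated with PDE4B in assay buffer for 1 h at 30 °C, with and without test compound at 1 μM. Reaction stopped by adding yttrium silicate beads that bind the [H3]-AMP product; after 45 min settling, scintillation counted. Value is % inhibition at 1 μM.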
Chain of PDE4B (Q07343 whole entry, species assumed): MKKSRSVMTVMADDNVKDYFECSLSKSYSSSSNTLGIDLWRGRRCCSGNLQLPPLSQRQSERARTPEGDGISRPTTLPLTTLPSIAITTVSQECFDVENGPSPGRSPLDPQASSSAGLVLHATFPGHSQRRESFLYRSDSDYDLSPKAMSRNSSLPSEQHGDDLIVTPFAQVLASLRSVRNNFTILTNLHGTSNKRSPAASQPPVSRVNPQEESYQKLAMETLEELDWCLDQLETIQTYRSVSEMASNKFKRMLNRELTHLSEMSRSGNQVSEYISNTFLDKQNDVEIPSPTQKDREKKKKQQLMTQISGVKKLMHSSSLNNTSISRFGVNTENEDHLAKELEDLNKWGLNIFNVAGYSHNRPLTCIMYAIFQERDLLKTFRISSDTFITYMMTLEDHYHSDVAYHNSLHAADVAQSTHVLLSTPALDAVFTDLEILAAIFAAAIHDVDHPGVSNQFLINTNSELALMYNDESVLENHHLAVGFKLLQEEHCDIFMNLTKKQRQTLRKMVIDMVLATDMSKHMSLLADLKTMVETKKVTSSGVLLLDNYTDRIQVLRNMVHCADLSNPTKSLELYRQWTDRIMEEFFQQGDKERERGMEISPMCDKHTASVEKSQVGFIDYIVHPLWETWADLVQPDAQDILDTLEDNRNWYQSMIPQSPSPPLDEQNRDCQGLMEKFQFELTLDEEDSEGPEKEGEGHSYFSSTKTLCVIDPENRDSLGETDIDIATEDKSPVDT
(In general: In a scintillation proximity assay essentially only radioactivity close to the scintillant gives light.)
`CN1CCc2ccc(OC3CCN(c4nc5c(c(NC6CCOCC6)n4)[S+]([O-])CC5)CC3)cc2CC1` (stereo not drawn) [Example 186, (2-[4-(3-Methyl-2,3,4,5-Tetrahydro-1H-Benzo[d]Azepin-7-Yloxy)-Piperidin-1-Yl]-5-Oxo-6,7-Dihydro-5H-5λ^4-Thieno[3,2-d]Pyrimidin-4-Yl)-(Tetrahydropyran-4-Yl)-Amine]: the inhibition at 1 µM is 96%.

Turning to `CN1C[C@@H](Nc2nc(N3CCC(c4cc5ccccc5o4)CC3)nc3c2[S+]([O-])CC3)CCC1=O` (stereo partly drawn) [Example 187], the inhibition at 1 µM turned out to be 98%. As for `CN1C[C@@H](Nc2nc(N3CCC(c4nc(-c5ccncc5)no4)CC3)nc3c2[S+]([O-])CC3)CCC1=O` (stereo partly drawn) [Example 188], the inhibition at 1 µM amounted to 97%. To `CC(C)c1noc(C2CCN(c3nc4c(c(N[C@H]5CCC(=O)N(C)C5)n3)[S+]([O-])CC4)CC2)n1` (stereo partly drawn) [Example 189] belongs 97%. As to `CN1C[C@@H](Nc2nc(N3CCC(c4cc(-c5ccco5)n[nH]4)CC3)nc3c2[S+]([O-])CC3)CCC1=O` (stereo partly drawn) [Example 190], 1 µM produced 97% inhibition.

Regarding `[O-][S+]1CCc2nc(N3CCC(c4nc5ccc(Cl)cc5[nH]4)CC3)nc(NC3CCOCC3)c21` (stereo not drawn) [Example 191], at 1 µM the inhibition was 96%. Under `Cn1cc(C2CCN(c3nc4c(c(NC5CCOCC5)n3)[S+]([O-])CC4)CC2)c2cc(C(C)(C)C)ccc21` (stereo not drawn) [Example 192, {2-[4-(5-tert-butyl-1-methyl-1H-indol-3-yl)-piperidin-1-yl]-5-oxo-6,7-dihydro-5H-5λ^4-thieno[3,2-d]pyrimidin-4-yl}-(tetrahydropyran-4-yl)-amine] stands 95%. For `Cn1cc(C2CCN(c3nc4c(c(NC5CCOCC5)n3)[S+]([O-])CC4)CC2)c2ccccc21` (stereo not drawn) [Example 193], 1 µM produced 96% inhibition.

Compound `CN1C[C@@H](Nc2nc(N3CCC(c4nc5ccc(Cl)cc5o4)CC3)nc3c2[S+]([O-])CC3)CCC1=O` (stereo partly drawn) [Example 194, 5-{2-[4-(6-Chlorbenzoxazol-2-yl)-piperidin-1-yl]-5-oxo-6,7-dihydro-5H-5λ^4-thieno[3,2-d]pyrimidin-4-ylamino}-1-methylpiperidin-2-one] displayed an inhibition at 1 µM of 97%. To `CN1C[C@@H](Nc2nc(N3CCC(c4nc5cc(F)ccc5o4)CC3)nc3c2[S+]([O-])CC3)CCC1=O` (stereo partly drawn) [Example 195, 5-{2-[4-(5-fluorobenzoxazol-2-yl)-piperidin-1-yl]-5-oxo-6,7-dihydro-5H-5λ^4-thieno[3,2-d]pyrimidin-4-ylamino}-1-methylpiperidin-2-one] belongs 96%.

`CN1C[C@@H](Nc2nc(N3CCC(c4cc[n+]([O-])cc4)CC3)nc3c2[S+]([O-])CC3)CCC1=O` (stereo partly drawn) [Example 196]: 1 µM produced 94% inhibition.

With `CN1C[C@@H](Nc2nc(N3CCC(C)(c4nc5cc(F)ccc5o4)CC3)nc3c2[S+]([O-])CC3)CCC1=O` (stereo partly drawn) [Example 197, 5-{2-[4-(5-fluorobenzoxazol-2-yl)-4-methylpiperidin-1-yl]-5-oxo-6,7-dihydro-5H-5λ^4-thieno[3,2-d]pyrimidin-4-ylamino}-1-methylpiperidin-2-one], the inhibition at 1 µM stood at 96%.

On to `Cn1nc(C2CCN(c3nc4c(c(NC5CCOCC5)n3)[S+]([O-])CC4)CC2)cc1-c1ccco1` (stereo not drawn) [Example 198, {2-[4-(5-furan-2-yl-1-methyl-1H-pyrazol-3-yl)-piperidin-1-yl]-5-oxo-6,7-dihydro-5H-5λ^4-thieno[3,2-d]pyrimidin-4-yl}-(tetrahydropyran-4-yl)-amine], for which the inhibition at 1 µM was found to be 94%. On to `CN1C[C@@H](Nc2nc(N3CCC(Oc4ccc(C5=NCCO5)cc4)CC3)nc3c2[S+]([O-])CC3)CCC1=O` (stereo partly drawn) [Example 199], for which 1 µM produced 96% inhibition. Under `Cn1nc(-c2ccco2)cc1C1CCN(c2nc3c(c(NC4CCOCC4)n2)[S+]([O-])CC3)CC1` (stereo not drawn) [Example 200, {2-[4-(5-furan-2-yl-2-methyl-2H-pyrazol-3-yl)-piperidin-1-yl]-5-oxo-6,7-dihydro-5H-5λ^4-thieno[3,2-d]pyrimidin-4-yl}-(tetrahydropyran-4-yl)-amine] stands 97%; under `CCCN1C[C@@H](Nc2nc(N3CCC(c4ccc(Cl)cc4)CC3)nc3c2[S+]([O-])CC3)CCC1=O` (stereo partly drawn) [Example 201, 5-{2-[4-(4-chlorophenyl)-piperidin-1-yl]-5-oxo-6,7-dihydro-5H-5λ^4-thieno[3,2-d]pyrimidin-4-ylamino}-1-propylpiperidin-2-one], 95%. `COCC(=O)NCC1(c2ccccc2)CCN(c2nc3c(c(N[C@H]4CCC(=O)N(C)C4)n2)[S+]([O-])CC3)CC1` (stereo partly drawn) [Example 202, 2-methoxy-N-{1-[4-(1-methyl-6-oxopiperidin-3-ylamino)-5-oxo-6,7-dihydro-5H-5λ^4-thieno[3,2-d]pyrimidin-2-yl]-4-phenylpiperidin-4-ylmethyl}-acetamide] gave an inhibition at 1 µM of 96%. To `CN1C[C@@H](Nc2nc(N3CCC(C(=O)c4ccc(F)cc4)(c4ccc(F)cc4)CC3)nc3c2[S+]([O-])CC3)CCC1=O` (stereo partly drawn) [Example 203, 5-{2-[4-(4-fluorobenzoyl)-4-(4-fluorophenyl)-piperidin-1-yl]-5-oxo-6,7-dihydro-5H-5λ^4-thieno[3,2-d]pyrimidin-4-ylamino}-1-methylpiperidin-2-one] belongs 96%. As to `CC(=O)NCC1(c2ccccc2)CCN(c2nc3c(c(N[C@H]4CCC(=O)N(C)C4)n2)[S+]([O-])CC3)CC1` (stereo partly drawn) [Example 204, N-{1-[4-(1-methyl-6-oxopiperidin-3-ylamino)-5-oxo-6,7-dihydro-5H-5λ^4-thieno[3,2-d]pyrimidin-2-yl]-4-phenylpiperidin-4-ylmethyl}-acetamide], the inhibition at 1 µM is 96%.

`COC(=O)C1(c2ccccc2)CCN(c2nc3c(c(N[C@H]4CCC(=O)N(C)C4)n2)[S+]([O-])CC3)CC1` (stereo partly drawn) [Example 205, methyl 1-[4-(1-methyl-6-oxopiperidin-3-ylamino)-5-oxo-6,7-dihydro-5H-5λ^4-thieno[3,2-d]pyrimidin-2-yl]-4-phenylpiperidine-4-carboxylate] gave an inhibition at 1 µM of 96%. To `CN(C)CC(=O)NCC1(c2ccccc2)CCN(c2nc3c(c(N[C@H]4CCC(=O)N(C)C4)n2)[S+]([O-])CC3)CC1` (stereo partly drawn) [Example 206, 2-dimethylamino-N-{1-[4-(1-methyl-6-oxopiperidin-3-ylamino)-5-oxo-6,7-dihydro-5H-5λ^4-thieno[3,2-d]pyrimidin-2-yl]-4-phenylpiperidin-4-ylmethyl}-acetamide] belongs 95%; to `[O-][S+]1CCc2nc(N3CCC(c4nc5cccnc5[nH]4)CC3)nc(NC3CCOCC3)c21` (stereo not drawn) [Example 207], 95%; to `[O-][S+]1CCc2nc(N3CCC(c4nc5ncncc5[nH]4)CC3)nc(NC3CCOCC3)c21` (stereo not drawn) [Example 208], 82%. `[O-][S+]1CCc2nc(N3CCC(c4nc5cc(F)ccc5[nH]4)CC3)nc(NC3CCOCC3)c21` (stereo not drawn) [Example 209]: the inhibition at 1 µM worked out at 95%. Under `Cn1c(C2CCN(c3nc4c(c(NC5CCOCC5)n3)[S+]([O-])CC4)CC2)nc2cnccc21` (stereo not drawn) [Example 210, {2-[4-(1-methyl-1H-imidazo[4,5-c]pyridin-2-yl)-piperidin-1-yl]-5-oxo-6,7-dihydro-5H-5λ^4-thieno[3,2-d]pyrimidin-4-yl}-(tetrahydropyran-4-yl)-amine] stands 85%; under `Cn1c(C2CCN(c3nc4c(c(NC5CCOCC5)n3)[S+]([O-])CC4)CC2)nc2ccccc21` (stereo not drawn) [Example 212], 93%; under `[O-][S+]1CCc2nc(N3CCC(c4nc5ccncc5[nH]4)CC3)nc(NC3CCOCC3)c21` (stereo not drawn) [Example 213], 88%. To `O=C(C1CC1)N1CCc2ccc(OC3CCN(c4nc5c(c(NC6CCOCC6)n4)[S+]([O-])CC5)CC3)cc2CC1` (stereo not drawn) [Example 214, cyclopropyl-(7-{1-[5-oxo-4-(tetrahydropyran-4-ylamino)-6,7-dihydro-5H-5λ^4-thieno[3,2-d]pyrimidin-2-yl]-piperidin-4-yloxy}-1,2,4,5-tetrahydrobenzo[d]azepin-3-yl)-methanone] belongs 94%; to `CC(C)C(=O)N1CCc2ccc(OC3CCN(c4nc5c(c(NC6CCOCC6)n4)[S+]([O-])CC5)CC3)cc2CC1` (stereo not drawn) [Example 215], 79%. Take `COCC(=O)NCC1(c2ccccc2)CCN(c2nc3c(c(NC4(CO)CC4)n2)[S+]([O-])CC3)CC1` (stereo not drawn) [Example 216]: 1 µM produced 80% inhibition. As to `COCC(=O)NCC1(c2ccccc2)CCN(c2nc3c(c(NC4CCOCC4)n2)[S+]([O-])CC3)CC1` (stereo not drawn) [Example 217], at 1 µM the inhibition was 88%.

The compound `Cc1nn(C)cc1C(C)NC(=O)c1ccc(C2CCN(c3nc4c(c(NC5CCOCC5)n3)[S+]([O-])CC4)CC2)cc1` (stereo not drawn) [Example 218] came in with an inhibition at 1 µM of 94%. Under `CN1C[C@@H](Nc2nc(N3CCC(c4n[nH]c5ccccc45)CC3)nc3c2[S+]([O-])CC3)CCC1=O` (stereo partly drawn) [Example 219] stands 82%; under `[O-][S+]1CCc2nc(N3CCC(c4n[nH]c5ccccc45)CC3)nc(NC3(CO)CC3)c21` (stereo not drawn) [Example 220], 93%. Under `[O-][S+]1CCc2nc(N3CCC(c4n[nH]c5ccccc45)CC3)nc(NC3CCOCC3)c21` (stereo not drawn) [Example 221] stands 94%. Compound `CC(C)(C)OC(=O)N[C@@H]1CC1Nc1nc(N2CCC(c3ccc(Cl)cc3)CC2)nc2c1[S+]([O-])CC2` (stereo partly drawn) [Example 222, tert-butyl (2-{2-[4-(4-chlorophenyl)-piperidin-1-yl]-5-oxo-6,7-dihydro-5H-5λ^4-thieno[3,2-d]pyrimidin-4-ylamino}-cyclopropyl)-carbamidate] had an inhibition at 1 µM of 89%.

Take `CC(C)(NC(=O)c1ccc(C2CCN(c3nc4c(c(NC5CCOCC5)n3)[S+]([O-])CC4)CC2)cc1)c1ccncc1` (stereo not drawn) [Example 223]: at 1 µM the inhibition was 80%. In turn, `CN(C(=O)c1ccc(C2CCN(c3nc4c(c(NC5CCOCC5)n3)[S+]([O-])CC4)CC2)cc1)C1CCOCC1` (stereo not drawn) [Example 224] had an inhibition at 1 µM of 93%. Under `O=C(c1ccc(C2CCN(c3nc4c(c(NC5CCOCC5)n3)[S+]([O-])CC4)CC2)cc1)N(C1CCOCC1)C1CC1` (stereo not drawn) [Example 225] stands 89%.
